In patent US20160318866A1, “SUBSTITUTED BIPIPERIDINYL DERIVATIVES” (Bayer Pharma Aktiengesellschaft, priority 2013, published 2016) one finds IC50 data, which are given here for 28 molecules.

This assay addresses T1, human α2C receptor (Homo sapiens, UniProt P18825).
T1 construct: expressed in transfected cells; host or cells: CHO cells, also recombinantly expressing chimeric G protein Gαqi3 and mitochondrial obelin (mtOb)
T1 sequence (P18825 1-462): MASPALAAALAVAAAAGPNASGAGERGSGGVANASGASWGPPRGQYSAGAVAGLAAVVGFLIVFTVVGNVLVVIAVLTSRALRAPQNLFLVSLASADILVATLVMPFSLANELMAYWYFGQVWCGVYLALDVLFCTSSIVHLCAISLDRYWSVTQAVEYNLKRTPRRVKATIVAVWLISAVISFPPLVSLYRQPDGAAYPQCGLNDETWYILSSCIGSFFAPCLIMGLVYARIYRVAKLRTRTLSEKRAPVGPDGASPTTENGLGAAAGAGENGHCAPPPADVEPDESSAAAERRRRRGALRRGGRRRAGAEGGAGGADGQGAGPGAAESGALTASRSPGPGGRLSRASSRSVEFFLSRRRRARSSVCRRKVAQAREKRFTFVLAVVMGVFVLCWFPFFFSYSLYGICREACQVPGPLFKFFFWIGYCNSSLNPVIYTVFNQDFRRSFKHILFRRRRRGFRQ
Nature of the assay: Antagonism against the adrenoreceptor α2C (luminescence, recombinant CHO cell line). The class given is cell-based. The procedure:
Antagonism against the adrenoreceptor α1A was tested using a recombinant human α1A receptor CHO cell line which additionally also recombinantly expresses mtAeq (mitochondrial aequorin). Antagonism against the adrenoreceptor α2A was tested using a recombinant human α2A-Gα16 receptor fusion protein CHO cell line (PerkinElmer Life Sciences) which additionally also recombinantly expresses mtAeq. Antagonism against the adrenoreceptor α2B was tested using a recombinant human α2B receptor CHO cell line (PerkinElmer Life Sciences) which additionally also recombinantly expresses mtAeq. Antagonism against the adrenoreceptor α2C was tested using a recombinant human α2C receptor CHO cell line which additionally also recombinantly expresses a chimaric G protein (Gαqi3) and mtOb (mitochondrial obelin).
The cells were cultivated at 37° C. and 5% CO2 in Dulbecco's modified Eagle's Medium/NUT mix F12 with L-glutamine which additionally contains 10% (v/v) inactivated foetal calf serum, 1 mM sodium pyruvate, 0.9 mM sodium bicarbonate, 50 U/ml penicillin, 50 μg/ml streptomycin, 2.5 μg/ml amphotericin B and 1 mg/ml Geneticin. The cells were passaged with enzyme-free Hank's-based cell dissociation buffer. All cell culture reagents used are from Invitrogen (Carlsbad, USA).
Luminescence measurements were carried out on white 384-well microtitre plates. 2000 cells/well were plated in a volume of 25 μl and cultivated for one day at 30° C. and 5% CO2 in cell culture medium with coelenterazine (α2A and α2B: 5 μg/ml; α1a/c and α2C: 2.5 μg/ml). Serial dilutions of the test substances (10 μl) were added to the cells. After 5 minutes, noradrenalinee was added to the cells (35 μl; final concentrations: 20 nM (α1a/c and α2C) or 200 nM (α2A and α2B)), and the emitted light was measured for 50 seconds using a CCD (charge-coupled device) camera (Hamamatsu Corporation, Shizuoka, Japan) in a light-tight box. The test substances were tested up to a maximum concentration of 10 μM. The IC50 values were calculated from the appropriate dose-response curves.

Where [1] appears, read: antagonism against adrenoreceptor α2C, noradrenaline 20 nM, tested up to 10 μM, read-out: IC50.

Structures can show the parent of a compound that is named as a salt. Where two headings read alike, the source gives them in different places.

With `Cc1ncccc1CNC(=O)c1ccc(C(=O)N2CCC(N3CCC[C@@H](C)C3)CC2)cc1` [Example 95, 4-{[(3R)-3-Methyl-1,4′-bipiperidin-1′-yl]carbonyl}-N-[(2-methylpyridin-3-yl)methyl]benzamide], the IC50 under setting [1] worked out at 47 nM.
Same read-out and setting: in the case of `CC1CCCN(C2CCN(C(=O)c3ccc(C(=O)NC(C)(C)C)cc3)CC2)C1` (stereo not shown) [Example 38, 1-{1-[4-(tert-Butylcarbamoyl)benzoyl]piperidin-4-yl}-3-methylpiperidine trifluoroacetic acid salt] it was 139 nM.
In the case of `CC(C)(O)c1ccc(C(=O)N2CCC(N3CCCC(c4nc(C5CCC5)n[nH]4)C3)CC2)cc1` (stereo not shown) [Example 61, [3-(5-Cyclobutyl-4H-1,2,4-triazol-3-yl)-1,4′-bipiperidin-1′-yl][4-(2-hydroxypropan-2-yl)phenyl]methanone], the IC50 under setting [1] amounted to 111 nM.
Regarding `COC(C)(C)c1ccc(C(=O)N2CCC(N3CCCC(OCC4CC4)C3)CC2)cc1` (stereo not shown) [Example 122, [3-(Cyclopropylmethoxy)-1,4′-bipiperidin-1′-yl][4-(2-methoxypropan-2-yl)phenyl]methanone], the IC50 under setting [1] came out at 9 nM.
Still for that read-out and setting: in the case of `CC1CCCN(C2CCN(C(=O)c3ccc(C(=O)NCc4ccnc(Cl)c4)cc3)CC2)C1` (stereo not shown) [Example 75, N-[(2-Chloropyridin-4-yl)methyl]-4-[(3-methyl-1,4′-bipiperidin-1′-yl)carbonyl]benzamide trifluoroacetic acid salt] it was 36 nM.
Regarding `C[C@@H]1CCCN(C2CCN(C(=O)c3ccc(C(=O)NCc4cccnc4Cl)cc3)CC2)C1` [Example 83, (R)—N-[(2-Chloropyridin-3-yl)methyl]-4-{[(3R)-3-methyl-1,4′-bipiperidin-1′-yl]carbonyl}benzamide trifluoroacetic acid salt], the IC50 under setting [1] came out at 7 nM.
On the same count and under the same terms, next, `Cc1cc(CN(C)C(=O)c2ccc(C(=O)N3CCC(N4CCCC(C)C4)CC3)cc2)on1` (stereo not shown) [Example 50, N-methyl-4-[(3-methyl-1,4′-bipiperidin-1′-yl)carbonyl]-N-[(3-methyl-1,2-oxazol-5-yl)methyl]benzamide]: 169 nM; `CC(C)(C)c1ccc(C(=O)N2CCC(N3CCCC(OC(=O)N4CCCC4)C3)CC2)cc1` (stereo not shown) [Example 40, 1′-(4-tert-Butylbenzoyl)-1,4′-bipiperidin-3-yl-pyrrolidin-1-carboxylate trifluoroacetic acid salt]: 127 nM; `COC(=O)c1ccc(C(=O)N2CCC(N3CCCC(C)C3)CC2)cc1` (stereo not shown) [Example 22, Methyl 4-[(3-methyl-1,4′-bipiperidin-1′-yl)carbonyl]benzoate]: 940 nM.
Consider `C[C@@H]1CCCN(C2CCN(C(=O)c3ccc(C(C)(C)O)c(Cl)c3)CC2)C1` [Example 99, [3-Chloro-4-(2-hydroxypropan-2-yl)phenyl][(3R)-3-methyl-1,4′-bipiperidin-1′-yl]methanone], for which, under setting [1], the IC50 was determined as 84 nM.
As to `COCC1CCCN(C2CCN(C(=O)c3ccc(C(C)(C)O)cc3)CC2)C1` (stereo not shown) [Example 58, [4-(2-Hydroxypropan-2-yl)phenyl][3-(methoxymethyl)-1,4′-bipiperidin-1′-yl]methanone], the IC50 under setting [1] is 25 nM.
Still for that read-out and setting: in the case of `CC1CCCN(C2CCN(C(=O)c3ccc(C(=O)NCc4ccccc4C(F)(F)F)cc3)CC2)C1` (stereo not shown) [Example 81, 4-[(3-Methyl-1,4′-bipiperidin-1′-yl)carbonyl]-N-[2-(trifluoromethyl)benzyl]benzamide trifluoroacetic acid salt] it was 57 nM.
Regarding `CNCC1(c2ccc(C(=O)N3CCC(N4CCCC(C)C4)CC3)cc2)CCC1` (stereo not shown) [Example 68, (4-{1-[(Methylamino)methyl]cyclobutyl}phenyl) (3-methyl-1,4′-bipiperidin-1′-yl)methanone trifluoroacetic acid salt], the IC50 was determined as 4 nM.
As for `CC(C)CN(C)C(=O)c1ccc(C(=O)N2CCC(N3CCCC(C)C3)CC2)cc1` (stereo not shown) [Example 48, N-methyl-4-[(3-methyl-1,4′-bipiperidin-1′-yl)carbonyl]-N-(2-methylpropyl) benzamide], under setting [1], the half-maximal inhibitory concentration (IC50) is 199 nM.
The same measure, in the same setting: in the case of `CC1CCCN(C2CCN(C(=O)c3ccc(C(C)(C)C)cc3)CC2)C1` (stereo not shown) [Example 5, (4-tert-Butylphenyl)(3-methyl-1,4′-bipiperidin-1′-yl)methanone] it was 99 nM.
Same read-out and setting: in the case of `CC1CCCN(C2CCN(C(=O)c3ccc(C(C)(C)CO)cc3)CC2)C1` (stereo not shown) [Example 28, 1-{1-[4-(1-Hydroxy-2-methylpropan-2-yl)benzoyl]piperidin-4-yl}-3-methylpiperidine trifluoroacetic acid salt] it was 156 nM; in that of `Cc1n[nH]c(C2CCCN(C3CCN(C(=O)c4ccc(C(C)(C)O)cc4)CC3)C2)n1` (stereo not shown) [Example 63, [4-(2-Hydroxypropan-2-yl)phenyl][3-(3-methyl-1H-1,2,4-triazol-5-yl)-1,4′-bipiperidin-1′-yl]methanone], 128 nM; in that of `CCOC(=O)Cc1ccc(C(=O)N2CCC(N3CCCC(C(=O)OCC)C3)CC2)cc1` (stereo not shown) [Example 34, 3-(Ethoxycarbonyl)-1-{1-[4-(2-ethoxy-2-oxoethyl)benzoyl]piperidin-4-yl}piperidine trifluoroacetic acid salt], 86 nM.
Same read-out and setting: in the case of `CC1CCCN(C2CCN(C(=O)c3ccc(C(=O)NC(C)(C)c4ccc(Cl)cc4)cc3)CC2)C1` (stereo not shown) [Example 77, N-[2-(4-Chlorophenyl)propan-2-yl]-4-[(3-methyl-1,4′-bipiperidin-1′-yl)carbonyl]benzamide trifluoroacetic acid salt] it was 54 nM; in that of `CC1=C(C)CN(C2CCN(C(=O)c3ccc(C(C)(C)C)cc3)CC2)CC1` [Example 17, 1-[1-(4-tert-Butylbenzoyl)piperidin-4-yl]-4,5-dimethyl-1,2,3,6-tetrahydropyridine], 34 nM.
For the molecule `COCCNC(=O)c1ccc(C(=O)N2CCC(N3CCCC(C)C3)CC2)cc1` (stereo not shown) [Example 36, N-(2-Methoxyethyl)-4-[(3-methyl-1,4′-bipiperidin-1′-yl)carbonyl]benzamide], the IC50 under setting [1] is 479 nM.
Still for that read-out and setting: next, `CC1CCCN(C2CCN(C(=O)c3ccc(C4(CN(C)C=O)CCC4)cc3)CC2)C1` (stereo not shown) [Example 67, N-Methyl-N-[(1-{4-[(3-methyl-1,4′-bipiperidin-1′-yl)carbonyl]phenyl}cyclobutyl)methyl]formamide trifluoroacetic acid salt]: 51 nM.
The same measure, in the same setting: next, `CC1=C(C)CN(C2CCN(C(=O)c3ccc(C(=O)Nc4c(C)noc4C)cc3)CC2)CC1` [Example 104, 4-{[4-(4,5-Dimethyl-3,6-dihydropyridin-1 (2H)-yl)piperidin-1-yl]carbonyl}-N-(3,5-dimethyl-1,2-oxazol-4-yl)benzamide]: 9 nM; `CC1CCCN(C2CCN(C(=O)c3ccc(-c4cnco4)cc3)CC2)C1` (stereo not shown) [Example 39, (3-Methyl-1,4′-bipiperidin-1′-yl) [4-(1,3-oxazol-5-yl)phenyl]methanone]: 244 nM.
In the case of `CC1CCCN(C2CCN(C(=O)c3ccc(C(C)(C)C)cc3O)CC2)C1` (stereo not shown) [Example 12, (2-Hydroxy-4-tert-butylphenyl)(3-methyl-1,4′-bipiperidin-1′-yl)methanone], under setting [1], the IC50 was determined as 87 nM.
As to `Cc1nnc(C2CCCN(C3CCN(C(=O)c4ccc(C(C)(C)C)cc4)CC3)C2)o1` (stereo not shown) [Example 18, (4-tert-Butylphenyl) [3-(5-methyl-1,3,4-oxadiazol-2-yl)-1,4′-bipiperidin-1′-yl]methanone], under setting [1], the IC50 came out at 129 nM.
Consider `C[C@@H]1CCCN(C2CCN(C(=O)c3ccc(C(=O)NC(CO)c4ccccc4F)cc3)CC2)C1` (stereo partly drawn) [Example 94, N-[1-(2-Fluorophenyl)-2-hydroxyethyl]-4-{[(3R)-3-methyl-1,4′-bipiperidin-1′-yl]carbonyl}benzamide], for which the IC50 under setting [1] turned out to be 25 nM.
For `Cc1n[nH]c(C2CCCN(C3CCN(C(=O)c4ccc(C(C)(C)C)cc4)CC3)C2)n1` (stereo not shown) [Example 21, 1-[1-(4-tert-Butylbenzoyl)piperidin-4-yl]-3-(3-methyl-1H-1,2,4-triazol-5-yl)piperidine trifluoroacetic acid salt], the IC50 under setting [1] was 49 nM.
